In PubChem BioAssay (NCI):
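A five-concentration, 48-hour dose response in 96-well plates underlies each endpoint, interpolated linearly between surrounding concentrations. At the GI50, growth is halved. TGI is the concentration that stops growth completely.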

Legend:
Assay in all cases: growth of human tumour cells (NCI), 48 h
ACHN renal = system: ACHN renal
HCC-2998 colon = system: HCC-2998 colon
HL-60(TB) leukemia = system: HL-60(TB) leukemia
HS 578T breast = system: HS 578T breast
MDA-MB-231 breast = system: MDA-MB-231 breast
OVCAR-4 ovarian = system: OVCAR-4 ovarian
SF-539 CNS = system: SF-539 CNS
SR leukemia = system: SR leukemia

Row | SMILES | GI50 (ACHN renal) | TGI (ACHN renal) | GI50 (HCC-2998 colon) | TGI (HCC-2998 colon) | GI50 (HL-60(TB) leukemia) | TGI (HL-60(TB) leukemia) | GI50 (HS 578T breast) | TGI (HS 578T breast) | GI50 (MDA-MB-231 breast) | TGI (MDA-MB-231 breast) | GI50 (OVCAR-4 ovarian) | TGI (OVCAR-4 ovarian) | GI50 (SF-539 CNS) | TGI (SF-539 CNS) | GI50 (SR leukemia) | TGI (SR leukemia)
1 | CC(=O)/C=C/c1ccc(N(CCO)Cc2ccc(C(C)(C)C)cc2)cc1 | 50.1 µM | 170 µM | 152 µM | 321 µM | 24.9 µM | 66.8 µM | 80 µM | 297 µM | 87.9 µM | 225 µM | 43.6 µM | 175 µM | 84.3 µM | 212 µM | 39.1 µM | 169 µM
2 | OCC1OC(n2cnc3c(NCc4ccco4)ncnc32)C(O)C1O (configuration not stated) | 0.542 µM | > 100 µM | 3.85 µM | 40 µM | 0.724 µM | 3.48 µM | 3.38 µM | > 100 µM | 0.348 µM | 18.8 µM | 2.8 µM | 18.8 µM | 3.07 µM | 13.6 µM | 1.56 µM | 6.92 µM
3 | Nc1nc(N)c(-c2ccc(Cl)c(Cl)c2)c(CP(Cl)(Cl)(Cl)Br)n1 | 6.63 µM | > 100 µM | 19.9 µM | > 100 µM | 4.07 µM | 31.6 µM | 24.4 µM | > 100 µM | 9.62 µM | > 100 µM | 53.8 µM | > 100 µM | 12.9 µM | > 100 µM | 10.2 µM | > 100 µM
4 | C/C=C(\C)C(=O)O[C@@H]1C=CC(=O)O[C@H]1CNC(=O)[C@H](C)O | 15.9 µM | 31.2 µM | 20.4 µM | 40.9 µM | 8.67 µM | 32.3 µM | 16.7 µM | 53.8 µM | 21.8 µM | 45.5 µM | 19 µM | 42.9 µM | 23.3 µM | 57.5 µM | 6.78 µM | 48.6 µM
5 | COc1ccc2nc3ccccc3c(NCc3ccccc3)c2c1 | 2.01 µM | 5.97 µM | 1.86 µM | 3.77 µM | 2.15 µM | 4.81 µM | 2.19 µM | 5.57 µM | 1.85 µM | 4.38 µM | 2.37 µM | 7.58 µM | 1.94 µM | 3.96 µM | 1.38 µM | 4.51 µM
6 | C=CCN1C(=O)[C@]2(SC1=S)[C@H](c1cccc(Cl)c1)CN(C)[C@]21C(=O)NC2C=CC(Cl)=C[C@H]21 (some centres not stated) | 2.99 µM | 13.4 µM | 5.05 µM | 19.1 µM | 1.33 µM | 3.58 µM | 3.6 µM | 21.2 µM | 2 µM | 8.72 µM | 2.13 µM | 10.2 µM | 10.3 µM | 25.6 µM | 1.68 µM | 4.48 µM
7 | CCC(C(=O)[C@@H](C)[C@@H](O)[C@H](C)[C@@H]1O[C@@H]([C@@H](CC)C(=O)ONC(=O)c2ccccc2)CC[C@@H]1C)[C@H]1O[C@]2(C=CC(=O)[C@]3(CC[C@@](C)([C@H]4CC[C@](O)(CC)[C@H](C)O4)O3)O2)[C@H](C)C[C@@H]1C (some centres not stated) | 0.641 µM | 2.03 µM | 0.658 µM | 4.03 µM | 0.0875 µM | 0.442 µM | 0.0991 µM | 2.58 µM | 0.295 µM | 1.63 µM | 1.07 µM | > 40.1 µM | 0.262 µM | 1.71 µM | 0.0674 µM | 0.617 µM
